Broadly, the IC50 is the concentration needed to halve the response being measured.

The first assay has as its target T1, Human Polymorphonuclear Leukocyte Elastase (Homo sapiens, UniProt P08246).
T1 construct: Crude extract of human polymorphonuclear leukocytes (PMN) containing elastase activity; endogenous in cells; host or cells: human polymorphonuclear leukocytes (crude extract)
T1 sequence (P08246 30-247 limits assumed): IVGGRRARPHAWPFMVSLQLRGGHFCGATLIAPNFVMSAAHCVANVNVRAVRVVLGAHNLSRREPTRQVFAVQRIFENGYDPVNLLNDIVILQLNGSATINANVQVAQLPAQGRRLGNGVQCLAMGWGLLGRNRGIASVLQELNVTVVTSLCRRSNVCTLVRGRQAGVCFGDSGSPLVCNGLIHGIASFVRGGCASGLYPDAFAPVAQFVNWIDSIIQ
The assay is described as follows: Inhibition of human polymorphonuclear leukocyte (granulocyte) elastase via hydrolysis of Boc-AAPAN. The format is biochemical.
Settings: not given
How it is done: Enzyme assay for the Inhibition of Human Polymorphonuclear Leukocyte Elastase Via Hydrolysis of N-t-Boc-alanyl-alanyl-prolylalanine-p-nitroanilide
0.05M TES (N-tris[hydroxymethyl]methyl-2-amino-ethanesulfonic acid) buffer, pH 7.5.
0.2 mM N-t-Boc-alanyl-alanyl-prolyl-alanine-p-nitroanilide (Boc-AAPAN).
To prepare substrate, the solid (m.w. 550) was first dissolved in 10.0 ml DMSO. Buffer at pH 7.5 was then added to a final volume of 100 ml.
Crude extract of human polymorphonuclear leukocytes (PMN) containing elastase activity.
Inhibitors (cephalosporin sulfoxide esters) to be tested dissolved in DMSO just before use.
To 1.0 ml of 0.2 mM Boc-AAPAN in a cuvette, 0.01-0.1 ml of DMSO with or without inhibitor was added. After mixing, a measurement was taken at 410 mμ to detect any spontaneous hydrolysis due to of test compound. 0.05 Milliliters of PMN extract was then added and the αOD/minute at 410 mμ was measured and recorded. Beckman model 35 spectrophotometer was used.
The elastase activity in the crude PMN extract may vary from one preparation to another. A control of each new batch is run, and the volume added in the assay procedure is adjusted according to activity.
Compound `CN(C(=O)C(F)(F)F)[C@H]1C(=O)N2[C@@H](C(=O)OCc3ccccc3)C(C)(C)S(=O)(=O)[C@H]12` [6α-CF3 CON(CH3) / 2 / OBZ, Benzyl 6α-(N-methyltrifluoroacetamido)penicillanate-1,1-dioxide] showed an IC50 of 0.446 µM.
The compound `CC1(C)[C@H](C(=O)OCc2ccccc2)N2C(=O)[C@H](NC(=O)C(F)(F)F)[C@H]2S1(=O)=O` [6α-CF3 CONH / 2 / OBZ, Benzyl 6α-trifluoroacetamidopenicillanate-1,1-dioxide] gave an IC50 of 0.345 µM.
On the same count and under the same terms, the figure for `CC1(C)[C@H](C(=O)OCc2ccccc2)N2C(=O)[C@H](COC(=O)NCc3ccccc3)[C@H]2S1(=O)=O` [6α-CH2 O(CO)NH(BZ) / 2 / OBZ] is 8.22 µM; for `CCO[C@H]1C(=O)N2[C@@H](C(=O)OCc3ccc(C(=O)O)cc3)C(C)(C)S(=O)(=O)[C@H]12` [6α-OC2 H5 / 2 / OBZ(p-COOH)] it is 1.46 µM.
On the same count and under the same terms, as for `CC1(C)[C@H](C(=O)OCc2ccccc2)N2C(=O)[C@@H](NC(=O)C(F)(F)F)[C@H]2S1(=O)=O` [6β-CF3 CONH / 2 / OBZ], the figure is 4.6 µM.
The compound `CC1(C)[C@H](C(=O)OCc2ccccc2)N2C(=O)[C@@H](COC(=O)NCc3ccccc3)[C@H]2S1(=O)=O` [6β-CH2 O(CO)NH(BZ) / 2 / OBZ] had an IC50 of 1.44 µM.

The assay is the same for the next values; noted with them: crude human PMN extract, 0.2 mM Boc-AAPAN, pH 7.5, 410 mμ, 2 minutes after zero time; read-out: IC50 (dosage for 50% inhibition of the enzyme activity) (converted).
In the case of `Cc1ccc(S(=O)(=O)C[C@H]2C(=O)N3[C@@H]2[S+]([O-])C(C)(C)[C@@H]3C(=O)OCc2ccccc2)cc1` (stereo partly drawn) [6α-(TS)CH2 / 1 / OBZ], the IC50 was 8.41 µM.
On the same count and under the same terms, the figure for `Cc1ccc(S(=O)(=O)C[C@H]2C(=O)N3[C@@H](C(=O)OCc4ccccc4)C(C)(C)S(=O)(=O)[C@H]23)cc1` [6α-(TS)CH2 / 2 / OBZ (2nd)] is 4.07 µM.
Same read-out and setting: as for `Cc1ccc(S(=O)(=O)C[C@H]2C(=O)N3[C@@H](C(=O)OCc4ccccc4)C(C)(C)S(=O)(=O)[C@H]23)cc1` [6α-(TS)CH2 / 2 / OBZ], the figure is 0.61 µM; as for `Cc1ccc(S(=O)(=O)N[C@H]2C(=O)N3[C@@H]2SC(C)(C)[C@@H]3C(=O)OCc2ccccc2)cc1` [6α-(TS)NH / 0 / OBZ], 0.217 µM; as for `Cc1ccc(S(=O)(=O)N[C@H]2C(=O)N3[C@@H](C(=O)OCc4ccccc4)C(C)(C)S(=O)(=O)[C@H]23)cc1` [6α-(TS)NH / 2 / OBZ], 0.406 µM.
`CC1(C)[C@H](C(=O)OCc2ccc(C(=O)O)cc2)N2C(=O)[C@H](NC(=O)C(F)(F)F)[C@H]2[S+]1[O-]` (stereo partly drawn) [6α-CF3 (CO)NH / 1 / OBZ(p-COOH)]: the IC50 is 1.08 µM.
Still for that read-out and setting: the figure for `CN(CC(=O)O)C(=O)[C@@H]1N2C(=O)[C@H](NC(=O)C(F)(F)F)[C@H]2S(=O)(=O)C1(C)C` [6α-CF3 (CO)NH / 2 / N(CH3)(CH2 COOH)] is 12 µM; for `CN(CC(=O)OC(C)(C)C)C(=O)[C@@H]1N2C(=O)[C@H](NC(=O)C(F)(F)F)[C@H]2S(=O)(=O)C1(C)C` [6α-CF3 (CO)NH / 2 / N(CH3)(CH2 COOtBu)] it is 1.48 µM.
On the same count and under the same terms, as for `CN(Cc1ccc(C(=O)O)cc1)C(=O)[C@@H]1N2C(=O)[C@H](NC(=O)C(F)(F)F)[C@H]2S(=O)(=O)C1(C)C` [6α-CF3 (CO)NH / 2 / N(CH3)BZ(p-COOH)], the figure is 1.42 µM.
On the same count and under the same terms, as for `CN(Cc1ccc(C(=O)OC(C)(C)C)cc1)C(=O)[C@@H]1N2C(=O)[C@H](NC(=O)C(F)(F)F)[C@H]2S(=O)(=O)C1(C)C` [6α-CF3 (CO)NH / 2 / N(CH3)BZ(p-COOtBu)], the figure is 1.28 µM.
On to `CC1(C)[C@H](C(=O)OCc2ccc(C(=O)O)cc2)N2C(=O)[C@H](NC(=O)C(F)(F)F)[C@H]2S1(=O)=O` [6α-CF3 (CO)NH / 2 / OBZ(p-COOH)], for which the IC50 is 0.0836 µM.
Same read-out and setting: the figure for `CC(C)(C)OC(=O)c1ccc(COC(=O)[C@@H]2N3C(=O)[C@H](NC(=O)C(F)(F)F)[C@H]3S(=O)(=O)C2(C)C)cc1` [6α-CF3 (CO)NH / 2 / OBZ(p-COOtBu)] is 0.187 µM; for `CC(C)(C)OC(=O)[C@@H]1CCCN1C(=O)[C@@H]1N2C(=O)[C@H](NC(=O)C(F)(F)F)[C@H]2S(=O)(=O)C1(C)C` [6α-CF3 (CO)NH / 2 / drawing 31] it is 40.2 µM; for `CN(C(=O)C(F)(F)F)[C@H]1C(=O)N2[C@@H]1SC(C)(C)[C@@H]2C(=O)OCc1ccccc1` [6α-CF3 CON(CH3) / 0 / OBZ, benzyl 6α-(N-methyltrifluoroacetamido)penicillinate] it is 7.2 µM.
On the same count and under the same terms, as for `CN(C(=O)C(F)(F)F)[C@H]1C(=O)N2[C@@H]1[S+]([O-])C(C)(C)[C@@H]2C(=O)OCc1ccccc1` (stereo partly drawn) [6α-CF3 CON(CH3) / 1 / OBZ], the figure is 6.94 µM.
The same measure, in the same setting: the figure for `CC1(C)S[C@@H]2[C@@H](NC(=O)C(F)(F)F)C(=O)N2[C@H]1C(=O)OCc1ccccc1` [6α-CF3 CONH / 0 / OBZ, Benzyl 6α-trifluoroacetamidopenicillanate] is 9.94 µM; for `CC1(C)[C@H](C(=O)OCC(F)(F)F)N2C(=O)[C@H](NC(=O)C(F)(F)F)[C@H]2S1(=O)=O` [6α-CF3 CONH / 2 / OCH2 CF3] it is 0.235 µM.
As to `CC1(C)S[C@@H]2[C@@H](COC(=O)NCc3ccccc3)C(=O)N2[C@H]1C(=O)OCc1ccccc1` [6α-CH2 O(CO)NH(BZ) / 0 / OBZ], the IC50 was 11 µM.
On the same count and under the same terms, the figure for `CC(O)[C@H]1C(=O)N2[C@@H]1SC(C)(C)[C@@H]2C(=O)OCc1ccccc1` (stereo partly drawn) [6α-CH3 CH(OH) / 0 / OBZ] is 59.6 µM.
On the same count and under the same terms, as for `CC1(C)[C@H](C(=O)OCc2ccccc2)N2C(=O)[C@H](OCc3ccccc3)[C@H]2S1(=O)=O` [6α-OBZ / 2 / OBZ], the figure is 9.31 µM; as for `CCO[C@H]1C(=O)N2[C@@H](C(=O)OCc3ccccc3)C(C)(C)S(=O)(=O)[C@H]12` [6α-OC2 H5 / 2 / OBZ, Benzyl 6α-ethoxypenicillanate-1,1-dioxide], 5.44 µM.
Regarding `CO[C@H]1C(=O)N2[C@@H](C(=O)Cc3ccccc3)C(C)(C)S(=O)(=O)[C@H]12` [6α-OCH3 / 2 / BZ], the IC50 was 5.93 µM.
Still for that read-out and setting: the figure for `CO[C@H]1C(=O)N2[C@@H](C(=O)OCc3ccc(C(=O)O)cc3)C(C)(C)S(=O)(=O)[C@H]12` [6α-OCH3 / 2 / OBZ(p-COOH)] is 5.03 µM; for `CO[C@H]1C(=O)N2[C@@H](C(=O)OCC(F)(F)F)C(C)(C)S(=O)(=O)[C@H]12` [6α-OCH3 / 2 / OCH2 CF3] it is 11.6 µM; for `CO[C@H]1C(=O)N2[C@@H](C(=O)OCC(=O)OC(C)(C)C)C(C)(C)S(=O)(=O)[C@H]12` [6α-OCH3 / 2 / OCH2 COOtBu] it is 7.95 µM.
With `COC(=O)[C@@H]1N2C(=O)[C@H](OC)[C@H]2S(=O)(=O)C1(C)C` [6α-OCH3 / 2 / OCH3], the IC50 was 72.1 µM.
Same read-out and setting: the figure for `CN(Cc1ccccc1)C(=O)[C@@H]1N2C(=O)[C@@H](NC(=O)C(F)(F)F)[C@H]2SC1(C)C` [6β-CF3 (CO)NH / 0 / N(CH3)(BZ), 2,2-diimethyl-6-(trifluoroacetamido)-3-(N-methyl-N-benzylcarbamoyl)penam] is 1.44 µM; for `CN(Cc1ccccc1)C(=O)[C@@H]1N2C(=O)[C@@H](NC(=O)C(F)(F)F)[C@H]2S(=O)(=O)C1(C)C` [6β-CF3 (CO)NH / 2 / N(CH3)(BZ), 2,2-Dimethyl-6-(trifluoro-acetamido)-3-(N-methyl-N-benzylcarbamoyl)penam-1,1-dioxide] it is 4.47 µM.
With `COc1ccc(CNC(=O)[C@@H]2N3C(=O)[C@@H](NC(=O)C(F)(F)F)[C@H]3S(=O)(=O)C2(C)C)cc1` [6β-CF3 (CO)NH / 2 / NHBZ(p-OCH3)], the half-inhibitory concentration (IC50) was 0.647 µM.
Regarding `CC1(C)[C@H](C(=O)OCc2ccc(C(=O)O)cc2)N2C(=O)[C@@H](NC(=O)C(F)(F)F)[C@H]2S1(=O)=O` [6β-CF3 (CO)NH / 2 / OBZ(p-COOH)], the IC50 is 2.09 µM.
On the same count and under the same terms, as for `CC(C)(C)OC(=O)c1ccc(COC(=O)[C@@H]2N3C(=O)[C@@H](NC(=O)C(F)(F)F)[C@H]3S(=O)(=O)C2(C)C)cc1` [6β-CF3 (CO)NH / 2 / OBZ(p-COOtBu)], the figure is 0.935 µM.
Same read-out and setting: as for `CC1(C)S[C@@H]2[C@H](NC(=O)C(F)(F)F)C(=O)N2[C@H]1C(=O)OCc1ccccc1` [6β-CF3 CONH / 0 / OBZ, benzyl 6β-trifluoroacetamidopenicillanate], the figure is 29.8 µM; as for `CC1(C)[C@H](C(=O)c2ccccc2)N2C(=O)[C@@H](NC(=O)C(F)(F)F)[C@H]2S1(=O)=O` [6β-CF3 CONH / 2 / Ph], 2.47 µM.
`CC1(C)S[C@@H]2[C@H](COC(=O)NCc3ccccc3)C(=O)N2[C@H]1C(=O)OCc1ccccc1` [6β-CH2 O(CO)NH(BZ) / 0 / OBZ]: the IC50 is 33 µM.

The assay is the same for the next values; noted with them: read-out: IC50 (dosage for 50% inhibition of the enzyme activity); crude human PMN extract, 0.2 mM Boc-AAPAN, pH 7.5, 410 mμ, 2 minutes after zero time.
For the compound `CC1(C)S[C@@H]2C(OC(=O)Cc3ccccc3)C(=O)N2[C@H]1C(=O)OCc1ccccc1` (stereo partly drawn) [(BZ)COO / 0 / OBZ], the half-inhibitory concentration (IC50) is 47 µM.
Still for that read-out and setting: the figure for `CC1(C)[C@H](C(=O)OCc2ccccc2)N2C(=O)C(OC(=O)Cc3ccccc3)[C@H]2S1(=O)=O` (stereo partly drawn) [(BZ)COO / 2 / OBZ] is 8.74 µM.

(Values after US4847247A, “Penicillin derivatives as anti-inflammatory and antidegenerative agents” (Merck & Co., Inc., priority 1986, dated 1989).)
